According to ChEMBL document CHEMBL1201862, “PubChem BioAssay data set” (2004):
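The compound was tested at five concentrations on cells cultured in 96-well plates, with a 48-hour exposure period. Abbreviation: GI50, concentration required for 50% inhibition of growth.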 Activity calls are given as the source filed them. Rule as the data show it: active = GI50 up to about 1.1 µM and inactive = higher.

What was measured:
Test in all cases: inhibition of tumour cell growth, NCI panel, 48 h
U-251 = tested on: U-251
HT-29 = tested on: HT-29
UACC-257 = tested on: UACC-257
OVCAR-8 = tested on: OVCAR-8
SF-268 = tested on: SF-268
SF-539 = tested on: SF-539
DU-145 = tested on: DU-145
KM12 = tested on: KM12
HL-60 = tested on: HL-60
RXF 393 = tested on: RXF 393
K562 = tested on: K562
MDA-MB-435 = tested on: MDA-MB-435
MDA-N = tested on: MDA-N
SNB-19 = tested on: SNB-19
HCT-15 = tested on: HCT-15
SW-620 = tested on: SW-620
A498 = tested on: A498
SR = tested on: SR
CAKI-1 = tested on: CAKI-1
OVCAR-5 = tested on: OVCAR-5
SF-295 = tested on: SF-295
SNB-75 = tested on: SNB-75
COLO 205 = tested on: COLO 205
SK-MEL-2 = tested on: SK-MEL-2
SK-MEL-5 = tested on: SK-MEL-5
A549 = tested on: A549
Hs-578T = tested on: Hs-578T
MDA-MB-231 = tested on: MDA-MB-231
IGROV-1 = tested on: IGROV-1
786-0 = tested on: 786-0
SN12C = tested on: SN12C
EKVX = tested on: EKVX
T47D = tested on: T47D
ACHN = tested on: ACHN
OVCAR-3 = tested on: OVCAR-3
NCI-H23 = tested on: NCI-H23
NCI-H460 = tested on: NCI-H460
NCI-H226 = tested on: NCI-H226
HOP-62 = tested on: HOP-62
HCT-116 = tested on: HCT-116
RPMI-8226 = tested on: RPMI-8226
UO-31 = tested on: UO-31
CCRF-CEM = tested on: CCRF-CEM
M14 = tested on: M14
TK-10 = tested on: TK-10
PC-3 = tested on: PC-3
BT-549 = tested on: BT-549
UACC-62 = tested on: UACC-62
NCI/ADR-RES = tested on: NCI/ADR-RES
SK-MEL-28 = tested on: SK-MEL-28
MOLT-4 = tested on: MOLT-4
MCF7 = tested on: MCF7
HOP-92 = tested on: HOP-92
Malme-3M = tested on: Malme-3M
LOX IMVI = tested on: LOX IMVI
OVCAR-4 = tested on: OVCAR-4
SK-OV-3 = tested on: SK-OV-3
NCI-H522 = tested on: NCI-H522
HCC 2998 = tested on: HCC 2998

Compound: NNc1nncc2[nH]nnc12
- GI50 (U-251): > 100 µM (inactive)
- GI50 (HT-29): > 100 µM (inactive)
- GI50 (UACC-257): > 100 µM (inactive)
- GI50 (OVCAR-8): > 100 µM (inactive)
- GI50 (SF-268): > 100 µM (inactive)
- GI50 (SF-539): > 100 µM (inactive)
- GI50 (DU-145): > 100 µM (inactive)
- GI50 (KM12): > 100 µM (inactive)
- GI50 (HL-60): 48.1 µM (inactive)
- GI50 (RXF 393): > 100 µM (inactive)
- GI50 (K562): > 100 µM (inactive)
- GI50 (MDA-MB-435): > 100 µM (inactive)
- GI50 (MDA-N): > 100 µM (inactive)
- GI50 (SNB-19): > 100 µM (inactive)
- GI50 (HCT-15): > 100 µM
- GI50 (SW-620): > 100 µM (inactive)
- GI50 (A498): > 100 µM (inactive)
- GI50 (SR): 41.5 µM (inactive)
- GI50 (CAKI-1): > 100 µM (inactive)
- GI50 (OVCAR-5): > 100 µM (inactive)
- GI50 (SF-295): > 100 µM (inactive)
- GI50 (SNB-75): 5.74 µM (inactive)
- GI50 (COLO 205): > 100 µM (inactive)
- GI50 (SK-MEL-2): > 100 µM (inactive)
- GI50 (SK-MEL-5): > 10 µM (inactive)
- GI50 (A549): > 100 µM (inactive)
- GI50 (Hs-578T): > 100 µM (inactive)
- GI50 (MDA-MB-231): > 100 µM (inactive)
- GI50 (IGROV-1): > 100 µM (inactive)
- GI50 (786-0): > 100 µM (inactive)
- GI50 (SN12C): > 100 µM (inactive)
- GI50 (EKVX): > 100 µM (inactive)
- GI50 (T47D): > 100 µM (inactive)
- GI50 (ACHN): > 100 µM (inactive)
- GI50 (OVCAR-3): > 100 µM (inactive)
- GI50 (NCI-H23): > 100 µM (inactive)
- GI50 (NCI-H460): > 100 µM (inactive)
- GI50 (NCI-H226): > 100 µM (inactive)
- GI50 (HOP-62): > 100 µM (inactive)
- GI50 (HCT-116): > 100 µM (inactive)
- GI50 (RPMI-8226): > 100 µM (inactive)
- GI50 (UO-31): > 100 µM (inactive)
- GI50 (CCRF-CEM): > 100 µM (inactive)
- GI50 (M14): > 100 µM (inactive)
- GI50 (TK-10): > 100 µM (inactive)
- GI50 (PC-3): > 100 µM (inactive)
- GI50 (BT-549): > 100 µM (inactive)
- GI50 (UACC-62): > 100 µM (inactive)
- GI50 (NCI/ADR-RES): > 100 µM (inactive)
- GI50 (SK-MEL-28): > 100 µM (inactive)
- GI50 (MOLT-4): > 100 µM (inactive)
- GI50 (MCF7): > 100 µM (inactive)

Compound: CC1(CC2=C(C(=O)NCCO[Si](C)(C)C(C)(C)C)C3(OCCO3)C2=O)OCCO1
- GI50 (U-251): > 100 µM (inactive)
- GI50 (HT-29): > 100 µM (inactive)
- GI50 (UACC-257): > 100 µM (inactive)
- GI50 (OVCAR-8): > 100 µM (inactive)
- GI50 (SF-268): > 100 µM (inactive)
- GI50 (SF-539): > 100 µM (inactive)
- GI50 (DU-145): > 100 µM (inactive)
- GI50 (KM12): > 100 µM (inactive)
- GI50 (HL-60): 29.1 µM (inactive)
- GI50 (HOP-92): > 100 µM (inactive)
- GI50 (Malme-3M): 20.4 µM (inactive)
- GI50 (LOX IMVI): 57.5 µM (inactive)
- GI50 (MDA-MB-435): > 100 µM (inactive)
- GI50 (MDA-N): > 100 µM (inactive)
- GI50 (OVCAR-4): > 100 µM (inactive)
- GI50 (SNB-19): > 100 µM (inactive)
- GI50 (HCT-15): > 100 µM
- GI50 (SW-620): > 100 µM (inactive)
- GI50 (A498): > 100 µM (inactive)
- GI50 (CAKI-1): > 100 µM (inactive)
- GI50 (OVCAR-5): > 100 µM (inactive)
- GI50 (SK-OV-3): > 100 µM (inactive)
- GI50 (SF-295): > 100 µM (inactive)
- GI50 (SNB-75): 36.5 µM (inactive)
- GI50 (COLO 205): > 100 µM (inactive)
- GI50 (SK-MEL-2): > 100 µM (inactive)
- GI50 (SK-MEL-5): > 100 µM (inactive)
- GI50 (A549): > 100 µM (inactive)
- GI50 (Hs-578T): > 100 µM (inactive)
- GI50 (MDA-MB-231): > 100 µM (inactive)
- GI50 (IGROV-1): 92.7 µM (inactive)
- GI50 (786-0): > 100 µM (inactive)
- GI50 (SN12C): > 100 µM (inactive)
- GI50 (EKVX): > 100 µM (inactive)
- GI50 (T47D): 59.8 µM (inactive)
- GI50 (ACHN): > 100 µM (inactive)
- GI50 (OVCAR-3): > 100 µM (inactive)
- GI50 (NCI-H23): 63.5 µM (inactive)
- GI50 (NCI-H460): > 100 µM (inactive)
- GI50 (NCI-H226): 71.1 µM (inactive)
- GI50 (HOP-62): > 100 µM (inactive)
- GI50 (HCT-116): 68.5 µM (inactive)
- GI50 (UO-31): > 100 µM (inactive)
- GI50 (CCRF-CEM): 54.2 µM (inactive)
- GI50 (M14): > 100 µM (inactive)
- GI50 (TK-10): > 100 µM (inactive)
- GI50 (PC-3): > 100 µM (inactive)
- GI50 (BT-549): 53.2 µM (inactive)
- GI50 (UACC-62): > 100 µM (inactive)
- GI50 (NCI/ADR-RES): > 100 µM (inactive)
- GI50 (SK-MEL-28): > 100 µM (inactive)
- GI50 (MOLT-4): 61.1 µM (inactive)
- GI50 (MCF7): > 100 µM (inactive)
- GI50 (NCI-H522): 28.4 µM (inactive)

Compound: O=[N+]([O-])c1ccc(/N=N\c2c(O)ccc3ccccc23)c([N+](=O)[O-])c1
- GI50 (U-251): > 100 µM (inactive)
- GI50 (HT-29): > 100 µM (inactive)
- GI50 (UACC-257): > 100 µM (inactive)
- GI50 (OVCAR-8): > 100 µM (inactive)
- GI50 (SF-268): > 100 µM (inactive)
- GI50 (HCC 2998): > 100 µM (inactive)
- GI50 (DU-145): > 100 µM (inactive)
- GI50 (KM12): > 100 µM (inactive)
- GI50 (RXF 393): > 100 µM (inactive)
- GI50 (K562): 19.8 µM (inactive)
- GI50 (HOP-92): > 100 µM (inactive)
- GI50 (Malme-3M): > 100 µM (inactive)
- GI50 (LOX IMVI): > 100 µM (inactive)
- GI50 (MDA-MB-435): > 100 µM (inactive)
- GI50 (MDA-N): > 100 µM (inactive)
- GI50 (OVCAR-4): > 100 µM (inactive)
- GI50 (SNB-19): > 100 µM (inactive)
- GI50 (HCT-15): > 100 µM
- GI50 (SW-620): > 100 µM (inactive)
- GI50 (A498): > 100 µM (inactive)
- GI50 (CAKI-1): > 100 µM (inactive)
- GI50 (OVCAR-5): > 100 µM (inactive)
- GI50 (SK-OV-3): > 100 µM (inactive)
- GI50 (SF-295): > 100 µM (inactive)
- GI50 (SNB-75): > 100 µM (inactive)
- GI50 (COLO 205): > 100 µM (inactive)
- GI50 (SK-MEL-2): > 100 µM (inactive)
- GI50 (SK-MEL-5): > 100 µM (inactive)
- GI50 (A549): > 100 µM (inactive)
- GI50 (Hs-578T): > 100 µM (inactive)
- GI50 (MDA-MB-231): > 48.6 µM (inactive)
- GI50 (IGROV-1): > 32.7 µM (inactive)
- GI50 (786-0): > 100 µM (inactive)
- GI50 (SN12C): > 100 µM (inactive)
- GI50 (EKVX): > 60.4 µM (inactive)
- GI50 (T47D): > 100 µM (inactive)
- GI50 (ACHN): > 100 µM (inactive)
- GI50 (OVCAR-3): > 100 µM (inactive)
- GI50 (NCI-H23): > 100 µM (inactive)
- GI50 (NCI-H460): > 100 µM (inactive)
- GI50 (NCI-H226): > 100 µM (inactive)
- GI50 (HOP-62): > 100 µM (inactive)
- GI50 (HCT-116): > 100 µM (inactive)
- GI50 (RPMI-8226): > 83.4 µM (inactive)
- GI50 (UO-31): > 100 µM (inactive)
- GI50 (CCRF-CEM): 29.4 µM (inactive)
- GI50 (M14): > 100 µM (inactive)
- GI50 (TK-10): > 90.4 µM (inactive)
- GI50 (PC-3): > 100 µM (inactive)
- GI50 (BT-549): > 100 µM (inactive)
- GI50 (UACC-62): > 100 µM (inactive)
- GI50 (NCI/ADR-RES): > 100 µM (inactive)
- GI50 (SK-MEL-28): > 100 µM (inactive)
- GI50 (MOLT-4): 70.6 µM (inactive)
- GI50 (MCF7): > 100 µM (inactive)
- GI50 (NCI-H522): > 100 µM (inactive)
